Experimental data: patent publication US10221163B2 (priority 2015, dated 2019)
Like-named read-outs stand apart in the source and are kept apart here.

Key:
IMP-1 = IMP-1 (Serratia marcescens, UniProt P52699); test: biochemical; assay type: biochemical; settings: fluorescence assay, CCF2-FA substrate, 2 pM enzyme, 2 hours at 25° C.; read-out: IMP-1 IC50
In short: (§1)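 Inhibitor was mixed with the metallo-β-lactamase and CCF2-FA. After 2 hours at 25° C, fluorescence of the coumarin–fluorescein cephalosporin substrate was read. IC50 was calculated with a 4-parameter fit.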

NDM-1 = NDM-1 (Klebsiella pneumoniae, UniProt C7C422); test: biochemical; assay type: biochemical; settings: fluorescence assay, CCF2-FA substrate, 1 pM enzyme, 2 hours at 25° C.; read-out: NDM-1 IC50
In short: as §1

VIM-1 = VIM-1 (Pseudomonas aeruginosa (strain ATCC 15692 / DSM 22644 / CIP 104116 / JCM 14847 / LMG 12228 / 1C / PRS 101 / PAO1), UniProt A0A0F7KYQ8); test: biochemical; settings: CCF2-FA substrate, 30 pM enzyme, 2 hours at 25° C.
In short: as §1

[1] = test system: Escherichia coli expressing NDM-1 (CLB30005, CLB30016); assay type: cell-based; settings: NDM-1 strain, with imipenem 1 μg/ml, 95% inhibition of growth
In short: (§2)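 Imipenem 1 μg/ml + inhibitor; MBL-expressing clinical strains in 1.1×CAMHB, inoculum from saline suspension diluted 1:100; 35° C, 22–24 h; absorbance read-out.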

[2] = test system: Klebsiella pneumoniae expressing VIM-1 (IHMA599644); assay type: cell-based; settings: VIM-1 strain IHMA599644, with imipenem 1 μg/ml, 95% inhibition of growth
In short: as §2

[3] = test system: Serratia marcescens expressing IMP-1 (CL5741); assay type: cell-based; settings: IMP-1 strain CL5741, with imipenem 1 μg/ml, 95% inhibition of growth
In short: as §2

[4] = test system: Pseudomonas aeruginosa efflux+ (MB9798), IMP-1; assay type: cell-based; settings: concentration restoring susceptibility to imipenem at 2 μg/mL in the presence of a class A, C, D serine β-lactamase inhibitor closely related to relebactam
In short: (§3)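 Steps: add fixed imipenem and/or ceftazidime (usually CLSI breakpoint) and fixed AmpC-directed class A/C inhibitor to microbroth MIC wells; titrate MBL inhibitor; record concentration regaining susceptibility for each PAO1-derived strain; divide efflux+ by efflux− value.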

[5] = test system: Pseudomonas aeruginosa efflux− (MB9799), IMP-1; assay type: cell-based; settings: concentration restoring susceptibility to imipenem at 2 μg/mL in the presence of a class A, C, D serine β-lactamase inhibitor closely related to relebactam
In short: as §3

[6] = test system: Pseudomonas aeruginosa MB9798 vs MB9799; settings: ratio MITC95 PA_9798/MITC95 PA_9799
In short: as §3

[7] = fluorescence assay, read-out: VIM-1 IC50

Chain of NDM-1 (C7C422 whole entry, looked up, species assumed): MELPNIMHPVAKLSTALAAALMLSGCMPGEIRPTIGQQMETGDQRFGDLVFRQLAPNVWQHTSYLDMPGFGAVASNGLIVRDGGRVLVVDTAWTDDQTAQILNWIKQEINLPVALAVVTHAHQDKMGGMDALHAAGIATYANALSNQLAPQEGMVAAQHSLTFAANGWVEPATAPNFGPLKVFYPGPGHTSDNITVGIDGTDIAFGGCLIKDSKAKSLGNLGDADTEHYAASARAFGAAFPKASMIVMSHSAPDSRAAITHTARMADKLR
Chain of IMP-1 (P52699 whole entry, looked up, species assumed): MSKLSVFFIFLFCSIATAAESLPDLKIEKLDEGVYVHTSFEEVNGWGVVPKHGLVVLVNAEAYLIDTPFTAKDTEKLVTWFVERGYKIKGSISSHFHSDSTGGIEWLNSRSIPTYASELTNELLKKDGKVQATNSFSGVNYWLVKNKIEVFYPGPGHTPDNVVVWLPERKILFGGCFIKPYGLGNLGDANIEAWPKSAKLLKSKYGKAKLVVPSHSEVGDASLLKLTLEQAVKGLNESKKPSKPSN

| Compound | IC50 (IMP-1) [nM] | IC50 (NDM-1) [nM] | IC50 (VIM-1; [7]) [nM] | Escherichia coli MITC95 [1] [µM] | Klebsiella pneumoniae MITC95 [2] [µM] | Serratia marcescens MITC95 [3] [µM] | P. aeruginosa expressing IMP-1, efflux + (MB9798) MITC95 [4] [µM] | P. aeruginosa expressing IMP-1, efflux − (MB9799) MITC95 [5] [µM] | Efflux ratio [6] | IC50 (VIM-1; VIM-1 IC50, fluorescence assay) [nM] |
| --- | --- | --- | --- | --- | --- | --- | --- | --- | --- | --- |
| NS(=O)(=O)c1c(S(=O)(=O)N[C@@H]2CCNC2)ccc(-c2cccc3ncccc23)c1-c1nn[nH]n1 [Example 287, (R)-N1-(pyrrolidin-3-yl)-4-(quinolin-5-yl)-3-(2H-tetrazol-5-yl)benzene-1,2-disulfonamide] | 0.617 | 0.0422 | 0.165 | 1.563 | 3.125 | 1.563 | 1.563 | 1.563 | 1.00 |  |
| Nc1cc(-c2ccc(S(=O)(=O)N[C@@H]3CCNC3)c(S(N)(=O)=O)c2-c2nn[nH]n2)ccn1 [Example 288, (R)-4-(2-aminopyridin-4-yl)-N1-(pyrrolidin-3-yl)-3-(2H-tetrazol-5-yl)benzene-1,2-disulfonamide] | 0.462 | 0.0985 | 0.0781 | 0.7813 | 1.563 | 1.563 | 1.563 | 0.7813 | 2.00 |  |
| NCCn1nnc2c(-c3ccc(S(=O)(=O)N[C@@H]4CCNC4)c(S(N)(=O)=O)c3-c3nn[nH]n3)cccc21 [Example 289] | 1.22 | 0.249 | 0.104 | 0.7813 | 1.563 | 1.563 | 1.563 | 0.7813 | 2.00 |  |
| NCc1csc(Nc2cccc(-c3ccc(S(=O)(=O)N[C@@H]4CCNC4)c(S(N)(=O)=O)c3-c3nn[nH]n3)c2)n1 [Example 290, (R)-3′-((4-(aminomethyl)thiazol-2-yl)amino)-N4-(pyrrolidin-3-yl)-2-(2H-tetrazol-5-yl)-[1,1′-biphenyl]-3,4-disulfonamide] | 0.448 | 0.0873 |  | 0.1953 | 0.7813 | 0.7813 | 0.7813 | 0.3906 | 2.00 | 0.104 |
| NS(=O)(=O)c1c(S(=O)(=O)N[C@@H]2CCNC2)ccc(-c2cccn3ccnc23)c1-c1nn[nH]n1 [Example 291, (R)-4-(imidazo[1,2-a]pyridin-8-yl)-N1-(pyrrolidin-3-yl)-3-(2H-tetrazol-5-yl)benzene-1,2-disulfonamide] | 0.169 | 0.0505 |  | 0.7813 | 3.125 | 1.563 | 0.7813 | 0.7813 | 1.00 | 0.0694 |
| NC(=O)c1nc2c(-c3ccc(S(=O)(=O)N[C@H]4CCNC4)c(S(N)(=O)=O)c3-c3nn[nH]n3)cccc2[nH]1 [Example 292, (S)-4-(4-(N-(pyrrolidin-3-yl)sulfamoyl)-3-sulfamoyl-2-(2H-tetrazol-5-yl)phenyl)-1H-benzo[d]imidazole-2-carboxamide] | 0.672 | 0.0453 | 0.146 | 1.563 | 3.125 | 3.125 | 0.7813 | 1.563 | 0.50 |  |
| Nc1nc(-c2cccc(-c3ccc(S(=O)(=O)N[C@H]4CCNC4)c(S(N)(=O)=O)c3-c3nn[nH]n3)c2)c[nH]1 [Example 294, (S)-3′-(2-amino-1H-imidazol-4-yl)-N4-(pyrrolidin-3-yl)-2-(2H-tetrazol-5-yl)-[1,1′-biphenyl]-3,4-disulfonamide] | 1.72 | 0.197 |  | 0.3906 | 1.563 | 0.7813 | 1.563 | 0.7813 | 2.00 | 0.742 |
| CNc1nc2c(-c3ccc(S(=O)(=O)N[C@H]4CCNC4)c(S(N)(=O)=O)c3-c3nn[nH]n3)cccc2[nH]1 [Example 295, (S)-4-(2-(methylamino)-1H-benzo[d]imidazol-4-yl)-N1-(pyrrolidin-3-yl)-3-(2H-tetrazol-5-yl)benzene-1,2-disulfonamide] | 0.775 | 0.0561 | 0.172 | 0.7813 | 1.563 | 0.7813 | 0.7813 | 0.7813 | 1.00 |  |
| N[C@H](CO)CNS(=O)(=O)c1ccc(-c2cccc3[nH]cnc23)c(-c2nn[nH]n2)c1S(N)(=O)=O [Example 296, (S)—N^1-(2-amino-3-hydroxypropyl)-4-(1H-benzo[d]imidazol-4-yl)-3-(2H-tetrazol-5-yl)benzene-1,2-disulfonamide] | 0.198 | 0.0409 | 0.184 | 1.563 | 3.125 | 1.563 | 0.7813 | 0.7813 | 1.00 |  |
| Nc1ccc(-c2ccc(S(=O)(=O)NC[C@H](N)CO)c(S(N)(=O)=O)c2-c2nn[nH]n2)cn1 [Example 297, (S)—N^1-(2-amino-3-hydroxypropyl)-4-(6-aminopyridin-3-yl)-3-(2H -tetrazol-5-yl) benzene-1,2-disulfonamide] | 0.569 | 0.331 | 0.423 | 0.3906 | 1.563 | 0.7813 | 0.7813 | 0.7813 | 1.00 |  |
| NC[C@@H](O)CNS(=O)(=O)c1ccc(-c2cccc3[nH]c(N)nc23)c(-c2nn[nH]n2)c1S(N)(=O)=O [Example 298, (R)-4-(2-amino-1H-benzo[d]imidazol-4-yl)-N1-(3-amino-2-hydroxypropyl)-3-(2H-tetrazol-5-yl)-benzene-1,2-disulfonamide] | 0.671 | 0.0573 | 0.135 | 0.2786 | 1.031 | 0.4531 | 0.3555 | 0.5156 | 0.69 |  |
| NCc1nc2c(-c3ccc(S(=O)(=O)NC[C@H](O)CN)c(S(N)(=O)=O)c3-c3nn[nH]n3)cccc2[nH]1 [Example 299, (R)—N1-(3-amino-2-hydroxypropyl)-4-(2-(aminomethyl)-1H-benzo[d]imidazol-4-yl)-3-(2H-tetrazol-5-yl)benzene-1,2-disulfonamide] | 2.65 | 0.265 |  | 0.7813 | 1.563 | 1.563 | 0.7813 | 0.7813 | 1.00 | 0.154 |
| NCc1nc2c(-c3ccc(S(=O)(=O)NC[C@H](O)CN)c(S(N)(=O)=O)c3-c3nn[nH]n3)cccc2s1 [Example 300, (R)—N1-(3-amino-2-hydroxypropyl)-4-(2-(aminomethyl)benzo[d]thiazol-4-yl)-3-(2H-tetrazol-5-yl)benzene-1,2-disulfonamide] | 0.318 | 0.0703 |  | 1.563 | 1.563 | 1.563 | 0.7813 | 0.7813 | 1.00 | 0.0678 |
